According to US20230049619A1, “SIGMA-1 RECEPTOR LIGANDS AND USES THEREOF” (UNIVERSITE DE STRASBOURG, priority 2019, published 2023):
Structures can show the parent of a compound that is named as a salt.

These compounds were tested against T1, sigma-1 receptor (Homo sapiens, UniProt Q99720) (assay: sigma-1 receptor binding assay ([3H](+)-pentazocine displacement, Jurkat cell membranes)). Conditions: tested compound 10 nM, [3H](+)-pentazocine 15 nM, 37° C., 2 hours.
T1 construct: incubing Jurkat cell membranes ([…] protein per tube) with [^3H](+)-pentazocine; endogenous in cells; host or cells: Jurkat cell membranes
T1 sequence (Q99720 whole entry): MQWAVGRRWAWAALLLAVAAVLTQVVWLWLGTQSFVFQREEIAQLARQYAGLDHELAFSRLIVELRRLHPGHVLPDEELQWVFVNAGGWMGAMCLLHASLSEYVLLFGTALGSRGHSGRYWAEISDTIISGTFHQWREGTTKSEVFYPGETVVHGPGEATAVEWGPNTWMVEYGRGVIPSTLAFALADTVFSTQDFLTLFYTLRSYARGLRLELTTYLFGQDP
Experimental: The sigma-1 receptor binding assays were performed according to Ganapathy et al. (J Pharmacol Exp Ther 28:251-60, 1999). The sigma-1 receptor binding assay was carried out by incubing Jurkat cell membranes ([…] protein per tube) with [^3H](+)-pentazocine a selective sigma-1 radiotracer (15 nM) and a range of concentration of tested compounds, at 37° C. for 2 hours in 5 mM tris/HCl buffer (pH=7.4). The inhibition of [^3H](+)-pentazocine binding assay is mainly used to determine the inhibition constant (Ki) of potential sigma-1 receptor ligands. These assays are performed with a single concentration of [^3H](+)-pentazocine at a concentration near its KD and increasing concentrations of non-radioactive ligands.
O=c1c(-c2ccccc2)ccnn1C1CCN(Cc2ccccc2)CC1 [cpd 1, 2-(1-benzylpiperidin-4-yl)-4-phenylpyridazin-3(2H)-one hydrochloride] gave an inhibition at 0.01 µM of 59.9%. O=c1cc(-c2ccccc2)cnn1C1CCN(Cc2ccccc2)CC1 [cpd 2, 2-(1-benzylpiperidin-4-yl)-5-phenylpyridazin-3(2H)-one hydrochloride] gave an inhibition at 0.01 µM of 86%. O=c1c(-c2ccccc2)ccnn1C1CCN(CCc2ccccc2)CC1 [cpd 3, 4-phenyl-2-[1-(2-phenylethyl)piperidin-4-yl]-2,3-dihydropyridazin-3-one hydrochloride] gave an inhibition at 0.01 µM of 41.9%. O=c1c(-c2ccccc2)ccnn1C1CCN(CC2CC2)CC1 [cpd 4, 2-[1-(cyclopropylmethyl)piperidin-4-yl]-4-phenyl-2,3-dihydropyridazin-3-one hydrochloride] gave an inhibition at 0.01 µM of 13.5%. With Cl.O=c1c(-c2ccccc2)ccnn1C1CCN(CC2CCCC2)CC1 [cpd 5, 2-[1-(cyclopentylmethyl)piperidin-4-yl]-4-phenyl-2,3-dihydropyridazin-3-one hydro-chloride] the “sigma-1 receptor % inhibition 10 nM” value was 60.7%. O=c1c(-c2ccccc2)ccnn1C1CCCN(Cc2ccccc2)CC1 (centres unmarked) [cpd 6, 2-(1-benzylazepan-4-yl)-4-phenyl-2,3-dihydropyridazin-3-one hydrochloride] was tested, and the inhibition at 0.01 µM was 81.4%. O=c1cc(-c2ccccc2)cnn1CC1CCN(Cc2ccccc2)CC1 [cpd 8, 2-((1-benzylpiperidin-4-yl)methyl)-5-phenylpyridazin-3(2H)-one hydrochloride] gave an inhibition at 0.01 µM of 31.5%. Work on O=c1c(-c2ccccc2)ccnn1CC1CCCN(Cc2ccccc2)C1 (centres unmarked) [cpd 9, 2-[(1-benzylpiperidin-3-yl)methyl]-4-phenyl-2,3-dihydropyridazin-3-one hydrochloride] yielded an inhibition at 0.01 µM of 38.8%. O=c1c(-c2ccccc2)ccnn1CC1CCN(CCc2ccccc2)CC1 [cpd 10, 2-((1-phenethylpiperidin-4-yl)methyl)-4-phenylpyridazin-3(2H)-one hydrochloride] was tested, and the inhibition at 0.01 µM was 29.2%. Work on CCCN1CCC(Cn2nccc(-c3ccccc3)c2=O)CC1 [cpd 11, 4-phenyl-2-((1-propylpiperidin-4-yl)methyl)pyridazin-3(2H)-one hydrochloride] yielded an inhibition at 0.01 µM of 3.9%. Compound O=c1c(-c2ccccc2)ccnn1CC1CCN(Cc2ccc(Cl)cc2)CC1 [cpd 12, 2-((1-(4-chlorobenzyl)piperidin-4-yl)methyl)-4-phenylpyridazin-3(2H)-one hydrochloride] has an inhibition at 0.01 µM of 73.1%. O=c1c(-c2ccccc2)ccnn1CC1CCN(CC2CCCCC2)CC1 [cpd 13, 2-((1-(cyclohexylmethyl)piperidin-4-yl)methyl)-4-phenylpyridazin-3(2H)-one hydrochloride] showed an inhibition at 0.01 µM of 59.3%. For O=c1c(-c2ccccc2)ccnn1CC1CCN(Cc2ccncc2)CC1 [cpd 14, 4-phenyl-2-((1-(pyridin-4-ylmethyl)piperidin-4-yl)methyl)pyridazin-3(2H)-one hydrochloride], the inhibition at 0.01 µM was 16.4%. Work on O=c1c(-c2ccccc2)ccnn1CC1CCN(CC2CCOCC2)CC1 [cpd 15, 4-phenyl-2-((1-((tetrahydro-2H-pyran-4-yl)methyl)piperidin-4-yl)methyl)pyridazin-3(2H)-one dihydrochloride] yielded an inhibition at 0.01 µM of 19.3%. For Cl.Cl.O=c1c(-c2ccccc2)ccnn1CC1CCN(Cc2cnc[nH]2)CC1 [cpd 16, 2-{[1-(1H-imidazol-5-ylmethyl)piperidin-4-yl]methyl}-4-phenyl-2,3-dihydropyridazin-3-one dihydro-chloride], the “sigma-1 receptor % inhibition 10 nM” value was 3.8%. O=c1c(-c2ccccc2)ccnn1CC1CCN(Cc2ccc(O)cc2)CC1 [cpd 18, 2-((1-(4-hydroxybenzyl)piperidin-4-yl)methyl)-4-phenylpyridazin-3(2H)-one hydrochloride] showed an inhibition at 0.01 µM of 16.7%. O=c1c(-c2ccccc2)ccnn1CC1CCN(CCO)CC1 [cpd 20, 2-((1-(2-hydroxyethyl)piperidin-4-yl)methyl)-4-phenylpyridazin-3(2H)-one hydrochloride] showed an inhibition at 0.01 µM of 18.9%. Compound O=c1c(-c2ccccc2)ccnn1CC1CCN(CC(O)c2ccc(F)cc2)CC1 (centres unmarked) [cpd 23, 2-((1-(2-(4-fluorophenyl)-2-hydroxyethyl)piperidin-4-yl)methyl)-4-phenylpyridazin-3(2H)-one hydrochloride] has an inhibition at 0.01 µM of 1.3%. O=C(CN1CCC(Cn2nccc(-c3ccccc3)c2=O)CC1)c1ccc(F)cc1 [cpd 24, 2-((1-(2-(4-fluorophenyl)-2-oxoethyl)piperidin-4-yl)methyl)-4-phenylpyridazin-3(2H)-one hydrochloride] gave an inhibition at 0.01 µM of 6.2%. O=c1c(-c2ccccc2)ccnn1CC1CCN(CC(O)c2ccccc2)CC1 (centres unmarked) [cpd 25, 2-((1-(2-hydroxy-2-phenylethyl)piperidin-4-yl)methyl)-4-phenylpyridazin-3(2H)-one hydrochloride] showed an inhibition at 0.01 µM of 15.3%. Compound O=c1c(-c2ccccc2)ccnn1CCC1CCN(Cc2ccccc2)CC1 [cpd 26, 2-(2-(1-benzylpiperidin-4-yl)ethyl)-4-phenylpyridazin-3(2H)-one hydrochloride] has an inhibition at 0.01 µM of 80.9%. O=c1cc(-c2ccccc2)cnn1CCC1CCN(Cc2ccccc2)CC1 [cpd 27, 2-(2-(1-benzylpiperidin-4-yl)ethyl)-5-phenylpyridazin-3(2H)-one hydrochloride] showed an inhibition at 0.01 µM of 61.7%. With CC(C1CCN(Cc2ccccc2)CC1)n1nccc(-c2ccccc2)c1=O (centres unmarked) [cpd 28, 2-(1-(1-benzylpiperidin-4-yl)ethyl)-4-phenylpyridazin-3(2H)-one hydro chloride] the inhibition at 0.01 µM was 37%. With O=c1c(-c2ccccc2)ccnn1CC1(O)CCN(Cc2ccccc2)CC1 [cpd 29, 2-((1-benzyl-4-hydroxypiperidin-4-yl)methyl)-4-phenylpyridazin-3(2H)-one hydrochloride] the inhibition at 0.01 µM was 10.6%. O=c1c(-c2ccccc2Cl)ccnn1CC1CCN(Cc2ccccc2)CC1 [cpd 33, 2-[(1-benzylpiperidin-4-yl)methyl]-4-(2-chlorophenyl)-2,3-dihydropyridazin-3-one hydrochloride] gave an inhibition at 0.01 µM of 51.2%. For O=c1c(-c2ccc(F)cc2)ccnn1CC1CCN(Cc2ccccc2)CC1 [cpd 35, 2-((1-benzylpiperidin-4-yl)methyl)-4-(4-fluorophenyl)pyridazin-3(2H)-one hydrochloride], the inhibition at 0.01 µM was 44.6%. In the case of O=c1c(CCc2ccccc2)ccnn1CC1CCN(Cc2ccccc2)CC1 [cpd 36, 2-((1-benzylpiperidin-4-yl)methyl)-4-phenethylpyridazin-3(2H)-one], the inhibition at 0.01 µM is reported as 44.2%. With O=c1c(CCc2ccccc2)ccnn1C1CCN(Cc2ccccc2)CC1 [cpd 37, 2-(1-benzylpiperidin-4-yl)-4-(2-phenylethyl)-2,3-dihydropyridazin-3-one hydrochloride] the inhibition at 0.01 µM was 90%. Work on O=c1c(N2CCCCC2)ccnn1C1CCN(Cc2ccccc2)CC1 [cpd 38, 2-(1-benzylpiperidin-4-yl)-4-(piperidin-1-yl)-2,3-dihydropyridazin-3-one hydrochloride] yielded an inhibition at 0.01 µM of 52.3%. Cl.O=c1c(N2CCCCC2)ccnn1CC1CCN(Cc2ccccc2)CC1 [cpd 39, 2-[(1-benzylpiperidin-4-yl)methyl]-4-(piperidin-1-yl)-2,3-dihydropyridazin-3-one hydro-chloride] was tested, and the “sigma-1 receptor % inhibition 10 nM” value was 51.8%. O=c1c(N2CCOCC2)ccnn1CC1CCN(Cc2ccccc2)CC1 [cpd 40, 2-((1-benzylpiperidin-4-yl)methyl)-4-morpholinopyridazin-3(2H)-one hydrochloride] showed an inhibition at 0.01 µM of 8.2%. O=c1c(N2CCN(c3ccccc3)CC2)ccnn1CC1CCN(Cc2ccccc2)CC1 [cpd 41, 2-((1-benzylpiperidin-4-yl)methyl)-4-(4-phenylpiperazin-1-yl)pyridazin-3(2H)-one hydrochloride] showed an inhibition at 0.01 µM of 5.2%. For O=c1c(N2CCc3ccccc3C2)ccnn1CC1CCN(Cc2ccccc2)CC1 [cpd 42, 2-((1-benzylpiperidin-4-yl)methyl)-4-(3,4-dihydroisoquinolin-2(1H)-yl)pyridazin-3(2H)-one hydrochloride], the inhibition at 0.01 µM was 25.4%. O=c1c(-c2ccccc2)cccn1C1CCN(Cc2ccccc2)CC1 [cpd 44, 1-(1-benzylpiperidin-4-yl)-3-phenyl-1,2-dihydropyridin-2-one hydrochloride] was tested, and the inhibition at 0.01 µM was 29.6%. Work on O=c1c(-c2ccccc2)cncn1CC1CCN(Cc2ccccc2)CC1 [cpd 45, 3-((1-benzylpiperidin-4-yl)methyl)-5-phenylpyrimidin-4(3H)-one] yielded an inhibition at 0.01 µM of 75.7%. O=c1c(-c2ccccc2)cccn1CC1CCN(Cc2ccccc2)CC1 [cpd 46, 1-[(1-benzylpiperidin-4-yl)methyl]-3-phenyl-1,2-dihydropyridin-2-one hydrochloride] was tested, and the inhibition at 0.01 µM was 75.6%.

Same assay, conditions: tested compound 100 nM, [3H](+)-pentazocine 15 nM, 37° C., 2 hours
O=c1c(-c2ccccc2)ccnn1C1CCN(Cc2ccccc2)CC1 [cpd 1, 2-(1-benzylpiperidin-4-yl)-4-phenylpyridazin-3(2H)-one hydrochloride] showed an inhibition at 0.1 µM of 97.1%. O=c1cc(-c2ccccc2)cnn1C1CCN(Cc2ccccc2)CC1 [cpd 2, 2-(1-benzylpiperidin-4-yl)-5-phenylpyridazin-3(2H)-one hydrochloride] was tested, and the inhibition at 0.1 µM was 90%. In the case of O=c1c(-c2ccccc2)ccnn1CCC1CCN(Cc2ccccc2)CC1 [cpd 26, 2-(2-(1-benzylpiperidin-4-yl)ethyl)-4-phenylpyridazin-3(2H)-one hydrochloride], the inhibition at 0.1 µM is reported as 95%. For COc1ccc(-c2ccnn(C3CCN(Cc4ccccc4)CC3)c2=O)cc1 [cpd 30, 2-(1-benzylpiperidin-4-yl)-4-(4-methoxyphenyl)pyridazin-3(2H)-one hydrochloride], the inhibition at 0.1 µM was 75.8%. Compound O=c1c(-c2ccc(C(F)(F)F)cc2)ccnn1C1CCN(Cc2ccccc2)CC1 [cpd 31, 2-(1-benzylpiperidin-4-yl)-4-[4-(trifluoromethyl)phenyl]-2,3-dihydropyridazin-3-one hydro chloride] has an inhibition at 0.1 µM of 80%. Cl.O=c1c(-c2ccc(Cl)cc2)ccnn1C1CCN(Cc2ccccc2)CC1 [cpd 32] was tested, and the “sigma-1 receptor % inhibition 100 nM” value was 91.1%. O=c1c(CCc2ccccc2)ccnn1C1CCN(Cc2ccccc2)CC1 [cpd 37, 2-(1-benzylpiperidin-4-yl)-4-(2-phenylethyl)-2,3-dihydropyridazin-3-one hydrochloride] showed an inhibition at 0.1 µM of 100%. In the case of O=c1c(N2CCCCC2)ccnn1C1CCN(Cc2ccccc2)CC1 [cpd 38, 2-(1-benzylpiperidin-4-yl)-4-(piperidin-1-yl)-2,3-dihydropyridazin-3-one hydrochloride], the inhibition at 0.1 µM is reported as 90%.
